Measured values taken from patent US8846746B2, “Pyrazole compound and pharmaceutical use thereof” (Japan Tobacco Inc., priority 2011, dated 2014).

biological target: human SGLT1 (Homo sapiens (Human), UniProt P13866); test: SGLT1 inhibitory activity: 14C-AMG uptake into CHO-K1 cell line stably expressing human SGLT1; format: cell-based; conditions: 14C-AMG uptake, CHO-K1 cells stably expressing human SGLT1
In short: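 Human SGLT1 was stably expressed in CHO-K1 cells. Cells were first held 20 min in sodium-free buffer, then exposed to compound in Na(+)/BSA buffer with tracer and AMG (2 mM in the added solution).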

human SGLT1, sequence (P13866 whole entry): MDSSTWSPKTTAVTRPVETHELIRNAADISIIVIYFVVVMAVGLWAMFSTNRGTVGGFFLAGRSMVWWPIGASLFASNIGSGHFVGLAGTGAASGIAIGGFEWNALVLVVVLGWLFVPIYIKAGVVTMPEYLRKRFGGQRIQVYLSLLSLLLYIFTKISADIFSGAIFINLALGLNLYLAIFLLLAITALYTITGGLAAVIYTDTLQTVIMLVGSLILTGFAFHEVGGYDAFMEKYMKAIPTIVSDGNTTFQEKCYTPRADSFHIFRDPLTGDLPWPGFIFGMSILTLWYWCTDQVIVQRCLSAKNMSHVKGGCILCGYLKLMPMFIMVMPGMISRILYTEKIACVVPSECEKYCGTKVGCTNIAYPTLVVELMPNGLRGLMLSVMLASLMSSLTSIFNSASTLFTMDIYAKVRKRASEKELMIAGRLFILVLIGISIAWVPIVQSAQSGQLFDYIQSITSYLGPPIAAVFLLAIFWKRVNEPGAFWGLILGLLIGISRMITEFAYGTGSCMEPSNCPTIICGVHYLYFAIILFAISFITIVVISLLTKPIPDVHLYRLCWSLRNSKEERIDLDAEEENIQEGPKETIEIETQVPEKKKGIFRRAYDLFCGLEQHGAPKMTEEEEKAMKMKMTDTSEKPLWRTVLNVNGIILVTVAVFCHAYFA

Row | IC50 [nM] | Structure (SMILES)
1 | 15 | CC(C)COCc1cccc(-c2cc(NC(=O)[C@@H]3CNC(=O)C3)nn2-c2ccccc2)c1 [Example 314]
2 | 15.5 | CC(C)(C)COCc1cccc(-c2cc(NC(=O)[C@@H]3CNC(=O)C3)nn2-c2ccccc2)c1 [Example 315]
3 | 39 | CCCCOc1cccc(-c2cc(NC(=O)[C@@H]3CNC(=O)C3)nn2-c2ccccc2)c1 [Example 316]
4 | 22 | CC(C)Oc1cccc(-c2cc(NC(=O)[C@H]3CNC(=O)C3)nn2-c2ccccc2)c1 [Example 321]
5 | 4.7 | CCCc1cccc(-c2cc(NC(=O)[C@@H]3CNC(=O)C3)nn2-c2cc(C)cc(C)c2)c1 [Example 322]
6 | 4.8 | CCCc1cccc(-c2cc(NC(=O)[C@@H]3CNC(=O)C3)nn2-c2cccc(C)c2C)c1 [Example 323]
7 | 2.2 | CCCc1cccc(-c2cc(NC(=O)[C@@H]3CNC(=O)C3)nn2-c2cc(C)ccc2C)c1 [Example 324]
8 | 47 | CCCc1cccc(-c2cc(NC(=O)[C@@H]3CNC(=O)C3)nn2-c2c(C)cccc2C)c1 [Example 325]
9 | 22 | CCC(CC)OCc1cccc(-c2cc(NC(=O)[C@@H]3CNC(=O)C3)nn2-c2ccccc2)c1 [Example 332]
10 | 16 | CCCc1cccc(-c2cc(NC(=O)[C@@H]3CNC(=O)C3)nn2-c2cccc(OCc3ccccc3)c2)c1 [Example 340]
11 | 60 | CCCc1cccc(-c2cc(NC(=O)[C@@H]3CNC(=O)C3)nn2-c2cccc(O)c2)c1 [Example 341]
12 | 7.2 | CCCc1cccc(-c2cc(NC(=O)[C@@H]3CNC(=O)C3)nn2-c2cccc(OC)c2)c1 [Example 343]
13 | 3.35 | CCCc1cccc(-c2cc(NC(=O)[C@@H]3CNC(=O)C3)nn2-c2cccc(OC(C)C)c2)c1 [Example 344]
14 | 25 | CC[C@@H](C)OCc1cccc(-c2cc(NC(=O)[C@@H]3CNC(=O)C3)nn2-c2ccccc2)c1 [Example 350]
15 | 32 | CC[C@H](C)OCc1cccc(-c2cc(NC(=O)[C@@H]3CNC(=O)C3)nn2-c2ccccc2)c1 [Example 351]
16 | 17 | CCCc1cccc(-c2cc(NC(=O)[C@@H]3CNC(=O)C3)nn2-c2ccccc2CC)c1 [Example 358]
17 | 39 | CCCc1cccc(-c2cc(NC(=O)[C@@H]3CNC(=O)C3)nn2-c2ccccc2C(C)C)c1 [Example 359]
18 | 30 | CCCc1cccc(-c2cc(NC(=O)[C@@H]3CNC(=O)C3)nn2-c2ccc(OC)cc2)c1 [Example 362]
19 | 13 | CCCc1cccc(-c2cc(NC(=O)[C@@H]3CNC(=O)C3)nn2-c2ccc(C(C)C)cc2)c1 [Example 363]
20 | 6.35 | CCCc1cccc(-c2cc(NC(=O)[C@@H]3CNC(=O)C3)nn2-c2ccc(OCc3ccccc3)cc2)c1 [Example 370]
21 | 36 | CCCc1cccc(-c2cc(NC(=O)[C@@H]3CNC(=O)C3)nn2-c2ccc(O)cc2)c1 [Example 371]

Row | IC50 [nM] | Structure (SMILES)
22 | 14 | CCCc1cccc(-c2cc(NC(=O)[C@@H]3CNC(=O)C3)nn2-c2ccc(OCC)cc2)c1 [Example 372]
23 | 5.3 | CCCc1cccc(-c2cc(NC(=O)[C@@H]3CNC(=O)C3)nn2-c2ccc(OC(C)C)cc2)c1 [Example 373]
24 | 8.8 | CCCc1cccc(-c2cc(NC(=O)[C@@H]3CNC(=O)C3)nn2-c2ccc(OCCC(F)(F)F)cc2)c1 [Example 374]
25 | 13 | CCCc1cccc(-c2cc(NC(=O)[C@@H]3CNC(=O)C3)nn2-c2ccc(OCC(F)(F)F)cc2)c1 [Example 375]
26 | 31 | CCCc1cccc(-c2cc(NC(=O)[C@@H]3CNC(=O)C3)nn2-c2ccccc2OC)c1 [Example 376]
27 | 21 | CCCc1cccc(-c2cc(NC(=O)[C@@H]3CNC(=O)C3)nn2-c2ccccc2OC(C)C)c1 [Example 378]
28 | 5.25 | CCCc1cccc(-c2cc(NC(=O)[C@@H]3CNC(=O)C3)nn2-c2cccc(OCC)c2)c1 [Example 379]
29 | 6.75 | CCCOc1cccc(-n2nc(NC(=O)[C@@H]3CNC(=O)C3)cc2-c2cccc(CCC)c2)c1 [Example 380]
30 | 11.5 | CCCc1cccc(-c2cc(NC(=O)[C@@H]3CNC(=O)C3)nn2-c2cccc(OCC(C)C)c2)c1 [Example 381]
31 | 12 | CCCc1cccc(-c2cc(NC(=O)[C@@H]3CNC(=O)C3)nn2-c2cccc(OC3CCCC3)c2)c1 [Example 382]
32 | 14 | CCCOc1ccc(-n2nc(NC(=O)[C@@H]3CNC(=O)C3)cc2-c2cccc(CCC)c2)cc1 [Example 383]
33 | 35 | CCCc1cccc(-c2cc(NC(=O)[C@@H]3CNC(=O)C3)nn2-c2ccc(OC(F)(F)F)cc2)c1 [Example 386]
34 | 12.5 | CCCc1cccc(-c2cc(NC(=O)[C@@H]3CNC(=O)C3)nn2-c2cccc(OCC(F)(F)F)c2)c1 [Example 387]
35 | 5.35 | CCCc1cccc(-c2cc(NC(=O)[C@@H]3CNC(=O)C3)nn2-c2cccc(OC(=O)OC(C)(C)C)c2)c1 [Example 388]
36 | 15 | CCCc1cccc(-c2cc(NC(=O)[C@@H]3CNC(=O)C3)nn2-c2ccc(F)c(OC)c2)c1 [Example 389]
37 | 9.4 | CCCc1cccc(-c2cc(NC(=O)[C@@H]3CNC(=O)C3)nn2-c2ccc(F)c(OCC)c2)c1 [Example 390]
38 | 3.75 | CCCc1cccc(-c2cc(NC(=O)[C@@H]3CNC(=O)C3)nn2-c2ccc(F)c(OC(C)C)c2)c1 [Example 391]
39 | 5.7 | CCCc1cccc(-c2cc(NC(=O)[C@@H]3CNC(=O)C3)nn2-c2cccc(C(C)C)c2)c1 [Example 392]
40 | 5.25 | CCCc1cccc(-c2cc(NC(=O)[C@@H]3CNC(=O)C3)nn2-c2cccc(CC)c2)c1 [Example 393]
41 | 15 | CCCc1cccc(-c2cc(NC(=O)[C@@H]3CNC(=O)C3)nn2-c2cccc(C(C)(C)C)c2)c1 [Example 394]

Further lines, the compound ahead of its results:

Row | Structure (SMILES) | IC50 [nM]
42 | CCCc1cccc(-c2cc(NC(=O)C3CC[S+]([O-])CC3)nn2-c2ccccc2)c1 (stereo not drawn) [Example 318] | 3.2
43 | CC(C)CCOc1cccc(-c2cc(NC(=O)[C@@H]3CNC(=O)C3)nn2-c2ccccc2)c1 [Example 319] | 28
44 | CCCOC(C)(C)c1cccc(-c2cc(NC(=O)[C@@H]3CNC(=O)C3)nn2-c2ccccc2)c1 [Example 326] | 15
45 | CCCc1cccc(-c2cc(NC(=O)[C@H]3CNC(=O)N3C(C)C)nn2-c2ccccc2)c1 [Example 328] | 29
46 | C[C@@H](OCc1cccc(-c2cc(NC(=O)[C@@H]3CNC(=O)C3)nn2-c2ccccc2)c1)C(F)(F)F [Example 334] | 6.3
47 | C[C@H](OCc1cccc(-c2cc(NC(=O)[C@@H]3CNC(=O)C3)nn2-c2ccccc2)c1)C(F)(F)F [Example 335] | 16
48 | O=C1NC[C@H](C(=O)Nc2cc(-c3cccc(COCCC(F)(F)F)c3)n(-c3ccccc3)n2)O1 [Example 337] | 32
49 | CCCc1cccc(-c2cc(NC(=O)[C@@H]3CNC(=O)N3CCOC)nn2-c2ccccc2)c1 [Example 345] | 7.9
50 | CCCc1cccc(-c2cc(NC(=O)[C@H]3CNC(=O)N3CCOC)nn2-c2ccccc2)c1 [Example 346] | 2.7
51 | O=C1NC[C@H](C(=O)Nc2cc(-c3cccc(COCC(F)(F)F)c3)n(-c3ccccc3)n2)N1 [Example 349] | 72
52 | CC(C)(OCc1cccc(-c2cc(NC(=O)[C@@H]3CNC(=O)C3)nn2-c2ccccc2)c1)C(F)(F)F [Example 352] | 14
53 | CC(OCc1cccc(-c2cc(NC(=O)[C@@H]3CNC(=O)C3)nn2-c2ccccc2)c1)(C(F)(F)F)C(F)(F)F [Example 353] | 16
54 | O=C1NC[C@H](C(=O)Nc2cc(-c3cccc(COCCC(F)(F)F)c3)n(-c3ccccc3)n2)N1 [Example 354] | 79
55 | CC(C)(C)C(=O)c1cccc(-c2cc(NC(=O)[C@@H]3CNC(=O)C3)nn2-c2ccccc2)c1 [Example 356] | 11
56 | CC(OCc1cccc(-c2cc(NC(=O)[C@H]3CNC(=O)C3)nn2-c2ccccc2)c1)(C(F)(F)F)C(F)(F)F [Example 364] | 8.3
57 | C[C@@H](OCc1cccc(-c2cc(NC(=O)[C@H]3CNC(=O)N3)nn2-c2ccccc2)c1)C(F)(F)F [Example 365] | 18
58 | O=C1NC[C@H](C(=O)Nc2cc(-c3cccc(COC(C(F)(F)F)C(F)(F)F)c3)n(-c3ccccc3)n2)O1 [Example 366] | 20
59 | C[C@@H](OCc1cccc(-c2cc(NC(=O)[C@H]3CNC(=O)O3)nn2-c2ccccc2)c1)C(F)(F)F [Example 367] | 11.5
60 | CCCc1cccc(-c2cc(NC(=O)[C@@H]3COC(=O)N3)nn2-c2ccccc2)c1 [Example 368] | 56
61 | CCCc1cccc(-c2cc(NC(=O)[C@H]3COC(=O)N3)nn2-c2ccccc2)c1 [Example 369] | 15
62 | CCCc1cccc(-c2cc(NC(=O)[C@@H]3CNC(=O)N3CC(F)(F)F)nn2-c2ccccc2)c1 [Example 384] | 48
63 | CCCc1cccc(-c2cc(NC(=O)[C@H]3CNC(=O)N3CC(F)(F)F)nn2-c2ccccc2)c1 [Example 385] | 7
64 | CCCO[C@H](C)c1cccc(-c2cc(NC(=O)[C@@H]3CNC(=O)C3)nn2-c2ccccc2)c1 [Example 395] | 13
65 | CCCO[C@@H](C)c1cccc(-c2cc(NC(=O)[C@@H]3CNC(=O)C3)nn2-c2ccccc2)c1 [Example 396] | 31

same assay, conditions: CHO-K1, at 0.1 uM

Row | inhibition at 0.1 µM [%] | Structure (SMILES)
66 | 40 | CCCc1cccc(-c2cc(NC(=O)C3CC[S+]([O-])CC3)nn2-c2ccccc2)c1 (stereo not drawn) [Example 317]
67 | 33 | CCCc1cccc(-c2cc(NC(=O)C3CNC(=O)C34CC4)nn2-c2ccccc2)c1 (stereo not drawn) [Example 361]

same assay, conditions: CHO-K1, at 0.3 uM

Row | inhibition at 0.3 µM [%] | Structure (SMILES)
68 | 15 | CCCc1cccc(-c2cc(NC(=O)[C@@H]3CNC(=O)N3C(C)C)nn2-c2ccccc2)c1 [Example 327]
69 | 35 | CCCc1cccc(-c2cc(NC(=O)[C@@H]3CN(CC)C(=O)N3)nn2-c2ccccc2)c1 [Example 329]
70 | 11 | CCCc1cccc(-c2cc(NC(=O)[C@H]3CN(CC)C(=O)N3)nn2-c2ccccc2)c1 [Example 330]
71 | 11 | CCCc1cccc(-c2cc(NC(=O)[C@@H]3CNC(=O)N3CC(=O)O)nn2-c2ccccc2)c1 [Example 347]
72 | 26 | CCCc1cccc(-c2cc(NC(=O)[C@H]3CNC(=O)N3CC(=O)O)nn2-c2ccccc2)c1 [Example 348]
